Broadly, the Papp is a coefficient for how fast a substance crosses the barrier. Low readings indicate slow passage, high ones fast passage. A word on the IC50: it is the point on the concentration scale where inhibition reaches its midpoint.

One data set in a line: PAMPA permeability. As to conditions: PAMPA, 5 hours at RT. (In PAMPA a lipid-coated filter parts donor from acceptor wells.)
A further data set concerns the target T1, CYP2C9 (Homo sapiens, UniProt P11712).
T1 construct: from tissue; host or cells: pooled human liver microsomes
Put plainly: CYP-direct inhibition, CYP2C9. The data set is classed as in vitro ADME. Here is the method:
(§1) Many drugs inhibit cytochrome P450 enzymes to cause clinically significant changes in the pharmacokinetics of other drugs. In vitro cytochrome P450 inhibition, can provide crucial information in evaluating potential clinical drug-drug interactions and is useful for focusing in vivo tests to areas of concern. The cytochrome P450 inhibition assay was developed by preparing a working cocktail solution consisting of six probe substrates 10 μM ethoxy-resorufin (CYP1A2), 100 μM rosiglitazone (CYP2C8), 50 μM diclofenac (CYP2C9), 300 μM S-mephenytoin (CYP2C19), 50 μM dextromethorphan (CYP2D6), and 20 μM midazolam (CYP3A4). A mixture solution consists of 140 uL of 0.286 mg/mL of pooled human liver microsome working solution and 20 uL working solutions of test articles, standard control inhibitors, or positive control placebo and 20 uL of substrate cocktail mixture working solution was prepared. The mixture solution was pre-warm in a gentle shaking bath at 37±2° C. for 5 minutes. The enzymatic reaction started by adding 20 uL of NRS working solution to the mixture solution and incubated for 10 minutes at 37±2° C. To stop the reaction, an addition of 400 μL cold stop solution (acetonitrile containing 50 ng/mL Tolbutamide as an internal standard (I.Std.) was added to the mixture solution. The final concentration of test article, inhibitors, substrates, and cofactors are noted in Table 0.1 below. Two individual samples were prepared for each test compound. The extracted samples were vortexed and then centrifuged at 4500 rpm for 7 minutes using Eppendorf Centrifuge 5910R. 200 uL of supernatant was diluting with 200 uL of 50% Methanol into 96-DW plate for LC/MS/MS analysis
(§2) Concentration-response plots are used to determine the effects of an inhibitor on an enzymatic reaction. A typical concentration-response plot provides fractional activity (Y axis) is plotted as a function of log inhibitor concentration (X axis). The data are fitted using a standard Sigmoidal dose-response equation which is also called a […] logistic equation. The concentration of compound that results in 50% inhibition of maximal activity is termed as the IC50 (inhibitor concentration yielding 50% inhibition). IC50 value is calculated using Prism GraphPad software, version 9. […].
(§3) Cytochrome P450 inhibition of a drug is a key factor in determining pharmacokinetic drug-drug interactions. The objective of this study was to evaluate the inhibition potential of G9a inhibitors on six (6) major human cytochrome P450 enzymes, including CYP1A2, CYP2C8, CYP2C9, CYP2C19, CYP2D6, and CYP3A4. Inhibition was determined by using a substrate cocktail and analyzing the rate of specific metabolites formation. The cytochrome P450 inhibition assay was developed using a cocktail consisting of six (6) probe substrates ethoxy-resorufin (CYP1A2), rosiglitazone (CYP2C8), diclofenac (CYP2C9), S-mephenytoin (CYP2C19), dextromethorphan (CYP2D6), and midazolam (CYP3A4). The cocktail was incubated in human liver microsome with NADPH regenerating system (NRS) in a shaking bath at 37±2° C. The formation of specific metabolites was monitored by LC/MS/MS. Test compound was added to the cocktail-liver microsome mixture at varying concentrations and its effect on cytochrome P450 activity was determined by analyzing the rate of specific metabolite formation. The percent inhibition was calculated and plotted with reference to the concentration, and the IC50 value for inhibition was derived by fitting the data with a using log(inhibitor) vs. normalized response with variable slope least squares fit by Graphpad Prism® software. […].

For a further data set, the target named is T2, CYP2D6 (Homo sapiens, UniProt P10635).
T2 construct: from tissue; host or cells: pooled human liver microsomes
T2 sequence (P10635 whole entry): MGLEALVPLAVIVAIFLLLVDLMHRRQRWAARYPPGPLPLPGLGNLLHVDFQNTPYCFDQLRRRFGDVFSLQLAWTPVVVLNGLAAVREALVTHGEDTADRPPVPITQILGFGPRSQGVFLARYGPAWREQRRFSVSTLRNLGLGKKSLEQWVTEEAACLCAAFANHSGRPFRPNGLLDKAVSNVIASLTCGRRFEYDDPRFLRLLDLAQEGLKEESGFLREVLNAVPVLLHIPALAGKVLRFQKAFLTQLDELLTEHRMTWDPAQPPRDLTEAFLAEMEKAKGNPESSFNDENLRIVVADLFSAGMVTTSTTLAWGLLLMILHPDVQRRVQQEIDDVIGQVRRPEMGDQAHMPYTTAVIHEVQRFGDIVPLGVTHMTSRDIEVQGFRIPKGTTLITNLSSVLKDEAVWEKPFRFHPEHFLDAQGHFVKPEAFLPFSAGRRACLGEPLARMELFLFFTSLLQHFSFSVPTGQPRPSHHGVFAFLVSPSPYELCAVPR
Put plainly: CYP-direct inhibition, CYP2D6. Format: in vitro ADME. The settings on record: human liver microsome; substrate dextromethorphan; read-out: IC50 CYP-2D6. As for the experimental part: as §1, §2, §3
On the technique in general: Microsomes from liver hold many membrane-bound enzymes, among them those of drug oxidation.

Another data set deals with T3, CYP2C8 (Homo sapiens, UniProt P10632).
T3 construct: from tissue; host or cells: pooled human liver microsomes
T3 sequence (P10632 1-490): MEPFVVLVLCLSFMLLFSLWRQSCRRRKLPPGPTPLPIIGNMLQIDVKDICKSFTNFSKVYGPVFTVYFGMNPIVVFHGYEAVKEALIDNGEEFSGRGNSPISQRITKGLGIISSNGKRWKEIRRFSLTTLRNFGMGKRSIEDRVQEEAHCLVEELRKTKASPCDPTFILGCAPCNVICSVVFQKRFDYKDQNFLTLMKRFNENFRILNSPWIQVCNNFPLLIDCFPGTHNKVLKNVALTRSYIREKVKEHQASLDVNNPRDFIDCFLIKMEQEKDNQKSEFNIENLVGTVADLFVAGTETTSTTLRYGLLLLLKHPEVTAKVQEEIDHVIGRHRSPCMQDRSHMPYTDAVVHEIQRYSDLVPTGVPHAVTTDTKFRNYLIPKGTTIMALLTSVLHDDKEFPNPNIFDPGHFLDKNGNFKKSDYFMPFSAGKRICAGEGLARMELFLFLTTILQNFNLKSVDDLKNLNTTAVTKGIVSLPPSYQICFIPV
Put plainly: CYP-direct inhibition, CYP2C8. Format: in vitro ADME. As for the experimental part: as §1, §2, §3

T1 sequence (P11712 whole entry): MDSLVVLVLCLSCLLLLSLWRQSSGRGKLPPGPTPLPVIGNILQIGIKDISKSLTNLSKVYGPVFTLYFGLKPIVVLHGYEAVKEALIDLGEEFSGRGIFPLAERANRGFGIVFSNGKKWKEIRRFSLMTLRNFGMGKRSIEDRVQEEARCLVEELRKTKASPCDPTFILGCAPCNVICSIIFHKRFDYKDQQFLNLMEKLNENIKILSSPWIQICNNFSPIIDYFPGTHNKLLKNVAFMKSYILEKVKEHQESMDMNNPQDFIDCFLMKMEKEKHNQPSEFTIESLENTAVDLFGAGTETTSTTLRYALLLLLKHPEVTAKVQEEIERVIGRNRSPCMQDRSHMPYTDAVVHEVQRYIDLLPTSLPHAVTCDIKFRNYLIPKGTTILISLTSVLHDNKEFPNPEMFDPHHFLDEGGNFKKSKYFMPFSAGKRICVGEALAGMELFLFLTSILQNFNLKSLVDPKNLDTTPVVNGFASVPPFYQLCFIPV
Description for PAMPA permeability: Parallel artificial membrane permeability (PAMPA) assay is a non-cell based assay designed to predict in vivo biological membrane permeability of drugs in early stage of drug discovery. […] The Corning Gentest Pre-coated PAMPA plate system was designed by 96-well insert system with a 0.45 μm PVDF (polyvinylidene fluoride) filter plate which has been pre-coated with structured tri-layers of phospholipids (lipid/oil/lipid) and a matched receiver microplate.
Donor solutions of test compounds (300 μL, 20 μM in PBS/MeOH 90:10) were added to each well of the donor plate. 200 μL of PBS/MeOH 90:10 was added to each well of the acceptor plate. The acceptor plate was coupled with the donor plate and incubated for 5 hours at room temperature (RT) without agitation. In each plate, compounds were tested in triplicate. At the end of the incubation, drug concentration in the initial donor solution, acceptor and the donor wells were determined using LC/MS/MS. A five (5) points standard curve from 0.1 to 1000 nM for each test compound were prepared. Analyte samples were diluted to within standard curve concentration with ACN/H2O 50:50 prior analysis.
All samples were analyzed by electrospray ionization (ESI) liquid chromatograph/mass spectrometry (LC/MS) system utilizing Sciex 5500 quadropule ion trap (Qtrap) mass spectrometry with Shidmazu Nexera X2 UHPLC. The LC-MS/MS instrument monitored each of the test compound in the study based of their respective mass-to-charge (m/z) transitions and MS parameters. Chromatographic separation was achieved on Phenomenex Luna C18 column (50×2.0 mm, 3 μm particle size) by using a gradient elution: mobile phase A contains 0.1% formic acid in water and mobile phase B contains 0.1% formic acid in acetonitrile; A/B (99:1) from 0 to 1 minutes; to A/B (1:99) from 1 to 4 minutes; A/B (1:99) from 4 to 8 minutes; to A/B (99:1) from 8 to 8.20 minutes; A/B (99:1) from 8.2 to 9 minutes. The flow rate was 0.4 mL/min and the column temperature was maintained at 35° C. and autosampler temperature at 4° C. For detection, the electrospray ionization operated in the positive mode using multiple reaction monitoring (MRM).
Data acquisition, and peak integrations were obtained by Analyst® Version 1.7.1 (Sciex) operating with Windows® (Microsoft). The standard curve regressions and sample concentrations were generated and calculated by Analyst®. Concentrations in the sample solutions were determined based on the measured peak area ratios from the response of the analyte to the internal standard with reference to the standard calibration curve. All sample calculations were calculated using a linear regression with 1/x^2 weighting (where x is the concentration of given calibration standard level).
Permeability of the test compounds was calculated using the following formula:
The permeability of compounds was evaluated with the parallel artificial membrane permeation assay (PAMPA) as an in vivo model of passive diffusion across a porous filter coated with a lipid/oil/lipid tri-layer artificial membrane. […] Donor solutions of test compounds (300 μL, 20 μM in PBS/MeOH 90:10) were added to each well of the donor plate. 200 μL of PBS/MeOH 90:10 was added to each well of the acceptor plate. The acceptor plate was coupled with the donor plate and incubated for 5 hours at room temperature (RT) without agitation. In each plate, compounds were tested in triplicate. At the end of the incubation, drug concentration in the initial donor solution, acceptor and the donor wells were determined using LC/MS/MS. Permeability of test compounds was calculated based on the formula described in the General Procedures above. The PAMPA permeability classification criteria are categorized into three (3) classes with a high (Pe≥1.5×10−6 cm/s), intermediate (5.5×10−8<Pe<1.5×10−6 cm/s), and low (Pe<5.5×10−8 cm/s) permeability.

Turning to `COc1cc2c(NC3CCOCC3)nc(N3CCN(C)CC3)nc2cc1OCCCN1CCCC1` [Compound 236, 6-methoxy-2-(4-methylpiperazin-1-yl)-7-(3-(pyrrolidin-1-yl)propoxy)-N-(tetrahydro-2H-pyran-4-yl)quinazolin-4-amine], the apparent permeability coefficient (Papp) at 5 h, 20 μM was under 0.055 ×10⁻⁶ cm/s in “PAMPA permeability” (PAMPA permeability Classification, 20 μM donor) and 0.0299 ×10⁻⁶ cm/s in “PAMPA permeability” (Permeability, Pe, 20 μM donor in PBS/MeOH 90:10). The 50% inhibitory concentration (IC50) at CYP2C9, at CYP2D6 and at CYP2C8 was over 100 µM throughout.

Values taken from patent US11485728B2, “Small molecules for the treatment of autoimmune diseases and cancer” (Athos Therapeutics, Inc., priority 2020, dated 2022).
